Assays:
[1] = target: T1, αENACa (Rattus norvegicus, UniProt P37089); assay: [3H]phenamil binding to membranes from HEK-293 cells transfected with αENACa
T1 construct: expressed in transfected cells
T1 sequence (P37089 with tags, fused parts or gaps limits assumed): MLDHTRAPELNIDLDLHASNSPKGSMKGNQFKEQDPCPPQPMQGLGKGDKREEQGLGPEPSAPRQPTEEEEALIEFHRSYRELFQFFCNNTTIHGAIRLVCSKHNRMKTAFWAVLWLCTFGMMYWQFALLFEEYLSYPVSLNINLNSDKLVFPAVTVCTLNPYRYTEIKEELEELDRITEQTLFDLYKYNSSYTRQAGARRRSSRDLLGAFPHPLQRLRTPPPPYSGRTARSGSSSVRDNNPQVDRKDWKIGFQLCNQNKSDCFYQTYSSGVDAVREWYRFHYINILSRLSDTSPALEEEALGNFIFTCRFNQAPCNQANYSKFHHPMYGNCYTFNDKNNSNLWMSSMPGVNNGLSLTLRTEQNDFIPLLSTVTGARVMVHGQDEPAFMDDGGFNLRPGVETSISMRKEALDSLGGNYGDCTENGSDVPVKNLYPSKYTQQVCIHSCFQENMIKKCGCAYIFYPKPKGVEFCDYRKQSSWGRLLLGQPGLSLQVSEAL
From the text: (§1) Amiloride sensitive sodium channels have been extensively characterized in intact tissues by the binding of radioactive ligands. […] To limit variations in expression of individual clones, a pool of stably expressed cells (about 30 clones) that were mixed and propagated 3-4 times were used for the binding assay.
(§2) The full length cDNA of αENAC obtained by screening a rat taste cDNA library as described above (also described by Li et al., 1994, Proc. Natl. Acad. Sci. USA, 91:1814-1818, the disclosure of which is incorporated herein by reference) was cut with Not I and Xho I and inserted into an expression vector pcDNA-III (Invitrogen). The PCR product of the alternatively spliced form αENACa was cut with Bcl I to replace the corresponding region of native αENAC in pcDNA III. Thus the native form (αENAC) and an alternatively spliced form (αENACa) of the alpha subunit of ENAC in the expression vector was constructed for stable expression in HEK-293 cells. DNA (10 μg) was then transfected into HEK-293 cells by the calcium phosphate technique. Stable expression clones of cells were selected by exposure for 4-6 weeks to a medium containing 500 μg/ml G418.
(§3) Transfected HEK-293 cells were harvested in cold (4° C.) binding buffer containing 1 mM EDTA, 15 mM Tris-HCl (pH 7.7), 1 μM pepstain A, 0.1 μM aprotinin, 0.1 mM phenylmethylsulfonyl fluoride and 10 μM leupeptin. Cells were then homogenized, centrifuged and the pellet resuspended in the binding buffer at 1-2 mg/ml concentration. The reaction mixture (0.2 ml) containing [^3 H]phenamil ([…]) and 100 μg protein was incubated at 4° C. for 90 minutes and the reaction terminated by rapid filtration through Whatman GF/B glass fiber filters pretreated with 0.3% polyethyleneimine. Amiloride (Sigma) suspended in 50% dimethylformamide was used as a competitor in the binding assay. Proteins was assayed by a kit (Pierce) with bovine serum albumin as a standard.
(§4) [^3 H]phenamil binding in HEK-293 cells transfected with native αENAC or alternatively spliced αENACa are compared in FIGS. 9A and 9B. […]

[2] = target: T2, αENAC (Rattus norvegicus, UniProt P37089); assay: [3H]phenamil binding to membranes from HEK-293 cells transfected with native αENAC
T2 construct: alpha subunit transfected alone
T2 sequence (P37089 1-698): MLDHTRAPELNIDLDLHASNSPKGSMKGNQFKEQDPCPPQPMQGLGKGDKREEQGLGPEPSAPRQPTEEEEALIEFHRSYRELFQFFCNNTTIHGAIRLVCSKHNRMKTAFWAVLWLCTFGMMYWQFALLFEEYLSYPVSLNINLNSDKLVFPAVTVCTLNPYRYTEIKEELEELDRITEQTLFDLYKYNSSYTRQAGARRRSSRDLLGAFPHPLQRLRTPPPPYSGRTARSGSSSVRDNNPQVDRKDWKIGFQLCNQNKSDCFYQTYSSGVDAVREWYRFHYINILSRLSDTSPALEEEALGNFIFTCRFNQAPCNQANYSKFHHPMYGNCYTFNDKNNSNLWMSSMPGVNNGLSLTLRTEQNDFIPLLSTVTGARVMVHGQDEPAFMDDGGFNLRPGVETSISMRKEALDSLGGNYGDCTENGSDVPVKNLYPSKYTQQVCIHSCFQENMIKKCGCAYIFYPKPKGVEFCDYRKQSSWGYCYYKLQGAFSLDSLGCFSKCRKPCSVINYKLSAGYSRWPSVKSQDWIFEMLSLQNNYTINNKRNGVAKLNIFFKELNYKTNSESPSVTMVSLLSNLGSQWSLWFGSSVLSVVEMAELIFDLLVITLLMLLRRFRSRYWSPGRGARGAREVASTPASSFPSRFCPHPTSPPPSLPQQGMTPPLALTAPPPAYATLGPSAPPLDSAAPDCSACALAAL
From the text: as §1, §2, §3, §4

[3] = target: T1, αENACa; assay: Inhibition by amiloride of [3H]phenamil binding to membranes from HEK-293 cells transfected with αENACa; conditions: 50 nM [3H]phenamil
Description: as §3
(§5) Membrane protein (100 μg) was incubated with 50 nM [^3 H]phenamil in the absence or presence of increasing concentrations of amiloride. Three independent experiments were performed in duplicate. Results are presented of a typical experiment with values varying less than 20%.

[4] = target: T2, αENAC; assay: Inhibition by amiloride of [3H]phenamil binding to membranes from HEK-293 cells transfected with native αENAC; conditions: 50 nM [3H]phenamil, 100 μg membrane protein, increasing concentrations of amiloride
Description: as §3, §5

SMILES	specific [3H]phenamil binding, versus cells not transfected with the channel ([1]; HEK-293 cells transfected with αENACa, 50 nM [3H]phenamil, 1 mM amiloride)	Bmax ([1]; saturation analysis, membranes of HEK-293 cells transfected with αENACa) [pmol/mg protein]	Kd ([1]; saturation analysis, membranes of HEK-293 cells transfected with αENACa, 4° C., 90 minutes, read-out: apparent Kd) [nM]	levels of [3H]phenamil binding, versus cells transfected only with the expression vector ([2]; HEK-293 cells transfected with native αENAC, 50 nM [3H]phenamil, 1 mM amiloride)	Bmax ([2]; saturation analysis, membranes of HEK-293 cells transfected with αENAC) [pmol/mg protein]	Kd ([2]; saturation analysis, membranes of HEK-293 cells transfected with αENAC, 4° C., 90 minutes) [nM]	inhibition of [3H]phenamil binding ([3]; 100 μg membrane protein, increasing concentrations of amiloride, αENACa)	potency in competing for [3H]phenamil binding, αENACa transfected cells relative to native channel ([3]; αENACa versus native αENAC)	inhibition of [3H]phenamil binding [4]
NC(=Nc1ccccc1)NC(=O)c1nc(Cl)c(N)nc1N [[^3 H]phenamil, phenamil]	doubling	28	260	not significantly greater	18	270	–	–	–
N=C(N)NC(=O)c1nc(Cl)c(N)nc1N [amiloride, N-amidino-3,5-diamino-6-chloropyrazine carboxamide]	–	–	–	–	–	–	inhibited	about 10 times	inhibited
